The subject of the test is K24384-001-R-PDC complex spheroid viability. The experiment in a line: Anticancer human tumor K24384-001-R-PDC patient-derived pancreatic adenocarcinoma cell line growth inhibition. The following applies: for viability, T/C: stronger effect = lower value; for pIC50: curve of compound. The source says: Multicellular complex tumor spheroid response to LSD1 Inhibitor Iadademstat in combination with a variety of drugs and investigational agents in selected tumor cell lines
The current study was undertaken to assess response to LSD1 inhibitors in combination with standard-of-care drugs and investigational agents in solid tumor complex spheroid models as well as in the K-562 leukemia. Complex spheroids include a stromal component modeled by human endothelial cells (HUVEC) and fibroblasts modeled by human mesenchymal stem cells (MSCs). The concentration ranges selected for each drug and investigational agent were based upon clinically achievable concentrations if the clinical Cmax of the agent was known.
Compounds. The drugs and investigational agents used in this study are listed on Table 1. All of the agents used, including staurosporine (NSC755774) and gemcitabine (NSC613327), were obtained from the Developmental Therapeutics Program, NCI. FDA-approved anticancer drugs are available from the NCI at http://dtp.nci.nih.gov/branches/dscb/oncology_drugset_explanation.html. Drugs and investigational agents were >95% pure by proton nuclear magnetic resonance (NMR) and liquid chromatography/mass spectrometry (LC/MS). Stock solutions were prepared at 400x in DMSO, stored at -70 degrees C, and diluted in fresh medium prior to their use. The final concentration of DMSO in cell culture wells never exceeded 0.25% (v/v). The FDA-approved anticancer drug set is available from the Developmental Therapeutics Program at https://dtp.cancer.gov/organization/dscb/obtaining/available_plates.htm. All drugs and investigational agents were tested over a range starting from a high concentration at or near the clinical Cmax and decreasing in half-log increments. If the clinical Cmax for an agent had not been determined, the highest concentration tested was 10 microM.
Cell Lines. The patient-derived cancer cell (PDC) lines: 292921-168-R-J2-PDC, K24384-001-R-PDC, and 521955-158-R2-J5-PDC pancreatic carcinomas, 556581-035-R-J1 ovarian carcinoma, 324938-238-R-J1-PDC, 855422-203-R-J1-PDC and 883617-216-R-J1-PDC urothelial bladder carcinomas, 743489-274-T-PDC renal cell carcinoma, 138582-R-J1 Merkel cell tumor, K60290-347-R-J1 and K57222-313-R-J1-PDC glioblastomas, 653999-131-R-J2-PDC, LG0703-F948-PDC, and 349418-098-R-PDC non-small cell lung carcinomas, 885512-296-R-J2-PDC, 171881-019-R-J1-PDC breast carcinomas and 186277-243-T-J2-PDC and 233499-124-R-J2-PDC colon carcinomas were obtained from the NCI Patient-Derived Models Repository (PDMR, https://pdmr.cancer.gov). The established cell lines NCI/ADR-RES (RRID:CVCL_14520 and OVCAR-5 (RRID:CVCL_1628) ovarian carcinomas, 786-O (RRID:CVCL_1051) and A498 (RRID:CVCL_A498) renal cell carcinoma, NCI-H211 (ATCC, cat. CRL-5824; RRID:CVCL_1529), NCI-H196 (ATCC, cat. CRL-5823, RRID:CVCL_1509), SW 1271 (ATCC, cat. CRL-2177, RRID:CVCL_1716) and NCI-H1876 (ATCC, cat. CRL-5902, RRID:CVCL_1503) small cell lung carcinomas, MDA-MB-231 (RRID:CVCL_0062) and MDA-MB-468 (RRID:CVCL_0419)breast carcinomas (10-12). Pooled donor human umbilical vein endothelial cells (HUVEC, Lonza, cat. CC-2519) and human mesenchymal stem cells (hMSC, Lonza, cat. PT-2501) were purchased from Lonza (Walkersville, MD).
Cell Culture. All cells were maintained in an incubator at 37 degrees C and 5% CO2 with 95% humidity. The PDC lines were cultured according to standard operating procedures established by the NCI PDMR (https://pdmr.cancer.gov). Briefly all PDCs were thawed and cultured in Matrigel-coated flasks prepared with a working solution of 1X Ham's F-12 nutrient mix, without supplementation (Invitrogen, Waltham, MA, cat. 11765054), 100 U/mL penicillin-streptomycin (Invitrogen, cat. 15140122), and 2.5% Matrigel (Corning Inc., Corning, NY, cat. 354248) for the first three passages. […]

pIC50: −log10 of the molar value. Where “and” joins values, the source holds several entries; their conditions need not be identical. Identical values can stand only once.

A word on the viability, T/C: it is the ratio of treated to control. As a reminder, the pIC50 is the IC50 on a negative log10 scale, so that one unit is a factor of ten.
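Note: spheroids exposed to agents for seven days before luminescence viability reading.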

Regarding `CC(C)CC(NC(=O)C(Cc1ccccc1)NC(=O)c1cnccn1)B(O)O` (configuration not stated), the pIC50 was 9.30 and 9.26. For the setting “compound 0.000316 µM”, the viability, T/C was 81.2% and 95.6%. In addition, under “compound 0.001 µM”, the viability, T/C is 1.67% and 1.46%. For the same compound, the viability, T/C (compound 0.00316 µM) was 0.39% and 0.47%. The viability, T/C (compound 0.01 µM) was 0.38%. In addition, the viability, T/C (compound 0.0316 µM) was 0.34% and 0.41%. Besides, for the setting “compound 0.1 µM”, the viability, T/C is 0.36% and 0.35%.

In the case of `CC(C)CC(NC(=O)CNC(=O)c1cc(Cl)ccc1Cl)B1OC(=O)CC(CC(=O)O)(C(=O)O)O1` (configuration not stated), the pIC50 is 8.08 and 7.95. Moreover, the viability, T/C (compound 0.000316 µM) was 100% and 107%. The viability, T/C (compound 0.001 µM) was 103% and 86.3%. Also, for the setting “compound 0.00316 µM”, the viability, T/C was 91.3% and 79.2%. For the same compound, the viability, T/C (compound 0.01 µM) is 42.1% and 59.8%. Also, for the setting “compound 0.0316 µM”, the viability, T/C was 4.17% and 4.53%. The viability, T/C (compound 0.1 µM) is 0.95% and 1.47%.

Take `CC1COCCN1c1cc(-c2ccnn2C)c2ccnc(-c3ccn[nH]3)c2n1` (configuration not stated): the pIC50 is 7.45 and 8.07. The viability, T/C (compound 0.00316 µM) was 64.7% and 53.9%. Further, the viability, T/C (compound 0.01 µM) is 56.8% and 55.5%. Further, the viability, T/C (compound 0.0316 µM) was 47.3% and 37.6%. Besides, under “compound 0.1 µM”, the viability, T/C is 46.8% and 42.9%. The viability, T/C (compound 0.316 µM) was 49.4% and 44.7%. The viability, T/C (compound 1 µM) is 38.1% and 38.2%.

On to `CC[C@@]1(O)C(=O)OCc2c1cc1n(c2=O)Cc2cc3c(CN(C)C)c(O)ccc3nc2-1`, for which the pIC50 is < 7.00 and 7.67. In addition, the viability, T/C (compound 0.000316 µM) was 107% and 94.3%. For the setting “compound 0.001 µM”, the viability, T/C is 107% and 78.8%. Besides, the viability, T/C (compound 0.00316 µM) was 83.1% and 87.1%. For the same compound, where the note is “compound 0.01 µM”, the viability, T/C is 73% and 57.5%. For the setting “compound 0.0316 µM”, the viability, T/C is 61.3% and 49.8%. The viability, T/C (compound 0.1 µM) was 49.9% and 42.5%.

`CCc1c2c(nc3ccc(O)cc13)-c1cc3c(c(=O)n1C2)COC(=O)[C@]3(O)CC`: the pIC50 is 8.50 and > 9.02. The viability, T/C (compound 0.000949 µM) was 54.8% and 42%. Under “compound 0.003 µM”, the viability, T/C is 49.9% and 39.2%. The viability, T/C (compound 0.00949 µM) was 32.7%. The viability, T/C (compound 0.03 µM) is 9.62% and 11.7%. Moreover, the viability, T/C (compound 0.0949 µM) is 6.2% and 6.67%. For the same compound, the viability, T/C (compound 0.3 µM) is 5% and 5.21%.

Regarding `COc1cc(Nc2ncc3c(n2)-c2ccc(Cl)cc2C(c2c(F)cccc2OC)=NC3)ccc1C(=O)O`, the pIC50 was under 6.00. In addition, where the note is “compound 0.00316 µM”, the viability, T/C was 106% and 74.5%. Also, where the note is “compound 0.01 µM”, the viability, T/C is 94.8% and 78.3%. Besides, the viability, T/C (compound 0.0316 µM) was 85.9% and 62.4%. The viability, T/C (compound 0.1 µM) was 69.7% and 63.6%. In addition, for the setting “compound 0.316 µM”, the viability, T/C was 79.4% and 69.7%. Besides, the viability, T/C (compound 1 µM) is 87.7% and 70.3%.

As to `Cn1ncnc1C1c2n[nH]c(=O)c3cc(F)cc(c23)NC1c1ccc(F)cc1` (configuration not stated), the pIC50 was under 7.00. Also, the viability, T/C (compound 0.000316 µM) is 108% and 99.6%. In addition, the viability, T/C (compound 0.001 µM) was 105% and 115%. For the same compound, for the setting “compound 0.00316 µM”, the viability, T/C is 87.1% and 102%. For the same compound, for the setting “compound 0.01 µM”, the viability, T/C was 93.5% and 95%. In addition, the viability, T/C (compound 0.0316 µM) was 90.6% and 95.1%. Further, the viability, T/C (compound 0.1 µM) is 80.4% and 76.9%.

`Nc1ccn(C2OC(CO)C(O)C2(F)F)c(=O)n1` (configuration not stated): the negative-log IC50 (pIC50) is 7.20 and 7.34. Besides, the viability, T/C (compound 0.000949 µM) is 97.6%. Besides, under “compound 0.003 µM”, the viability, T/C was 89% and 86.8%. Moreover, where the note is “compound 0.00949 µM”, the viability, T/C is 73% and 73.2%. Moreover, the viability, T/C (compound 0.03 µM) was 60.7% and 53.4%. In addition, under “compound 0.0949 µM”, the viability, T/C is 44% and 42.3%. For the same compound, the viability, T/C (compound 0.3 µM) was 33.9% and 28.2%.

On to `Nc1ncn(C2CC(O)C(CO)O2)c(=O)n1` (configuration not stated), for which the pIC50 is under 6.00. Also, where the note is “compound 0.00316 µM”, the viability, T/C was 98.6% and 96.8%. For the same compound, for the setting “compound 0.01 µM”, the viability, T/C was 88.9% and 94.9%. The viability, T/C (compound 0.0316 µM) was 93% and 100%. Besides, under “compound 0.1 µM”, the viability, T/C is 84.2% and 77.6%. For the same compound, the viability, T/C (compound 0.316 µM) is 75.6% and 75.5%. In addition, the viability, T/C (compound 1 µM) was 75% and 87.2%.

As to `Nc1ncn(C2CC(O)C(CO)S2)c(=O)n1` (configuration not stated), the pIC50 is under 6.52. Where the note is “compound 0.000949 µM”, the viability, T/C is 93.1% and 95.2%. In addition, the viability, T/C (compound 0.003 µM) was 96.3% and 88.6%. The viability, T/C (compound 0.00949 µM) is 96.3% and 85.4%. In addition, the viability, T/C (compound 0.03 µM) was 83.3% and 89.3%. Further, the viability, T/C (compound 0.0949 µM) is 81.3% and 69.1%. The viability, T/C (compound 0.3 µM) was 55.9% and 56.2%.

Turning to `O=C(C=Cn1cnc(-c2cc(C(F)(F)F)cc(C(F)(F)F)c2)n1)NNc1cnccn1`, the pIC50 is 7.34 and 7.49. For the same compound, where the note is “compound 0.00316 µM”, the viability, T/C is 74% and 75.6%. Besides, under “compound 0.01 µM”, the viability, T/C was 61.5% and 68%. Also, under “compound 0.0316 µM”, the viability, T/C was 60.1% and 51.8%. Also, the viability, T/C (compound 0.1 µM) was 35.2% and 28.2%. Moreover, the viability, T/C (compound 0.316 µM) was 29.8% and 27.7%. In addition, the viability, T/C (compound 1 µM) is 19.4% and 19.7%.

(Values after PubChem BioAssay AID1918949 (Molecular Pharmacology Branch, DTP, NCI, 2023).)
